Laboratory results as given in ChEMBL document CHEMBL4732147, “A novel [5.2.1]bicyclic amine is a potent analgesic without µ opioid activity” (Bioorg Med Chem Lett, 2021).
Calls of active or inactive are those of the source. The calls are words filed in the database; no cut-off is given here.

Legend:
[1] = system: Mus musculus; assay: Analgesic activity in sc dosed ddY mouse assessed as protection against acetic acid-induced writhing; assay type: functional
[2] = system: Mus musculus; assay: Analgesic activity in ddY mouse assessed as protection against acetic acid-induced writhing at 30 mg/kg, sc relative to control; assay type: functional
[3] = target: T1, Mu-type opioid receptor (Homo sapiens, UniProt P35372); assay: Agonist activity at human Gi/G0-coupled mu opioid receptor expressed in human U2OS cells co-expressing EA-tagged beta-arrestin2 assessed as beta-arrestin 2 recruitment by PathHunter assay; assay type: cell-based
T1 sequence (P35372 whole entry): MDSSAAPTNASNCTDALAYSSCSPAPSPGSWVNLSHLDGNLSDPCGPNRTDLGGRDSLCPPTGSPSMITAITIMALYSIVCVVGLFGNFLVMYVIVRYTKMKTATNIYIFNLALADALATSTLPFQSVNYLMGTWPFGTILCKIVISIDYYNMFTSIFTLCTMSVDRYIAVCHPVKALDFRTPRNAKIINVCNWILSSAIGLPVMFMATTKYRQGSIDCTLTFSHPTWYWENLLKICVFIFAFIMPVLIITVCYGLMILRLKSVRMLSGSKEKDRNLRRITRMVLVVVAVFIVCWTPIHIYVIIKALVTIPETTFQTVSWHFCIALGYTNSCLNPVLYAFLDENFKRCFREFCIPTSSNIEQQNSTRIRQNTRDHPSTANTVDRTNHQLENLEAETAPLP

[4] = Plasma concentration in ddY mouse at 30 mg/kg, sc; assay type: ADME, organism-based; conditions: in vivo; further: time not given here
[5] = Drug concentration in ddY mouse brain at 30 mg/kg, sc; assay type: ADME, organism-based; conditions: in vivo, read-out: Ct; further: time not given here
[6] = system: Mus musculus; assay: Analgesic activity in sc dosed ddY mouse assessed as tail flicking; assay type: functional
[7] = system: Mus musculus; assay: Analgesic activity in ddY mouse assessed as tail flicking at 30 mg/kg, sc relative to control; assay type: functional
[8] = Toxicity in sc dosed ddY mouse assessed as effect on locomotor activity; assay type: organism-based; conditions: in vivo
[9] = Toxicity in ddY mouse assessed as hyperactivity at 10 mg/kg, sc; assay type: organism-based; conditions: in vivo
[10] = Drug concentration in ddY mouse brain at 10 mg/kg; assay type: ADME, organism-based; conditions: in vivo, read-out: Ct; further: time not given here
[11] = system: Mus musculus; assay: Analgesic activity in ddY mouse assessed as protection against acetic acid-induced writhing at 3 mg/kg, sc relative to control; assay type: functional
[12] = system: Mus musculus; assay: Analgesic activity in ddY mouse assessed as tail flicking at 300 mg/kg, sc; assay type: functional, organism-based
[13] = system: Cytochrome P450; assay: Metabolic stability in human cytochrome P450 assessed as parent compound remaining; assay type: ADME, protein assay; further: time not given here
[14] = Metabolic stability in mouse cytochrome P450 assessed as parent compound remaining; assay type: ADME; further: time not given here
[15] = Lipophilicity, log D of compound; assay type: physicochemical; conditions: octanol/water
[16] = Permeability of compound by PAMPA; assay type: ADME
[17] = Protein binding in mouse; assay type: ADME, organism-based; conditions: in vivo, read-out: PB (converted)
[18] = Half life in mouse at 10 mg/kg; assay type: ADME, organism-based; conditions: in vivo
[19] = Clearance in mouse at 10 mg/kg; assay type: ADME, organism-based; conditions: in vivo
[20] = Apparent clearance in mouse at 10 mg/kg; assay type: ADME, organism-based; conditions: in vivo
[21] = Oral bioavailability in mouse at 10 mg/kg; assay type: ADME, organism-based; conditions: in vivo
[22] = target: T1, Mu-type opioid receptor; assay: Binding affinity to mu opioid receptor (unknown origin)

Structure (SMILES)	ED50 [1]	Activity [2]	EC50 [3]	concentration [4]	concentration [5]	ED50 [6]	MPE [7]	other results
CN1Cc2c(O)cccc2CN2CC[C@@]1(c1ccccc1)C2	< 30 mg/kg	56%	> 20 µM	1.9 µM	18.9 µM	–	–	–
COc1ccc2c(c1)CN1CC[C@@](c3ccccc3)(C1)N(C)C2	< 30 mg/kg	59%	> 20 µM	2.2 µM	24.8 µM	> 30 mg/kg	36%	–
CCC(=O)N1Cc2ccccc2CN2CC[C@@]1(c1ccccc1)C2	≥ 30 mg/kg	87%	> 20 µM	5 µM	8.4 µM	–	–	–
OCCN1Cc2ccccc2CN2CC[C@@]1(c1ccccc1)C2	18.2 mg/kg	–	> 20 µM	2.7 µM	21.8 µM	> 30 mg/kg	18%	ID50 [8]: 37 mg/kg
CC(=O)N1Cc2ccccc2CN2CC[C@@]1(c1ccccc1)C2	31 mg/kg	–	> 20 µM	7.8 µM	6.3 µM	> 30 mg/kg	4.9%	–
CN1Cc2ccc(O)cc2CN2CC[C@@]1(c1ccccc1)C2	–	100%	2.4 µM	1.5 µM	19.4 µM	–	–	–
CN1Cc2ccccc2CN2CC[C@]1(c1ccccc1)C2	1 mg/kg	–	3 µM	0.75 µM	–	1.7 mg/kg	–	Activity [9]: Toxic; concentration [10]: 15.6 µM
CCCN1Cc2ccccc2CN2CCC1(c1ccccc1)C2 (racemic)	< 3 mg/kg	–	0.7 µM	–	–	–	–	Activity [11]: 100%
O=C1N[C@@]2(c3ccccc3)CCN(Cc3ccccc31)C2	> 30 mg/kg	23%	–	4.4 µM	11.2 µM	–	–	Activity [12]: inactive
COc1ccc2c(c1)CN(C)[C@@]1(c3ccccc3)CCN(C2)C1	11 mg/kg	–	> 20 µM	0.73 µM	6.9 µM	18 mg/kg	–	ID50 [8]: 14 mg/kg
COc1cccc2c1CN(C)[C@@]1(c3ccccc3)CCN(C2)C1	> 30 mg/kg	9.2%	> 20 µM	13.4 µM	6.2 µM	–	–	–
CN1Cc2cccc(O)c2CN2CC[C@@]1(c1ccccc1)C2	< 30 mg/kg	93%	> 20 µM	0.77 µM	13 µM	> 30 mg/kg	6%	–
CCN1Cc2ccccc2CN2CC[C@@]1(c1ccccc1)C2	< 30 mg/kg	100%	4 µM	1.8 µM	33.3 µM	> 10 mg/kg	43%	–
O=C1N[C@]2(c3ccccc3)CCN(Cc3ccccc31)C2	< 30 mg/kg	23%	–	3.5 µM	7.7 µM	–	–	–
CN1Cc2cc(O)ccc2CN2CC[C@@]1(c1ccccc1)C2	4.6 mg/kg	–	> 20 µM	0.74 µM	8.33 µM	6.2 mg/kg	–	ID50 [8]: 5.2 mg/kg
COc1cccc2c1CN1CC[C@@](c3ccccc3)(C1)N(C)C2	< 30 mg/kg	100%	> 20 µM	3.1 µM	31.1 µM	16 mg/kg	–	ID50 [8]: 19 mg/kg
CN1Cc2ccccc2CN2CC[C@@]1(c1ccccc1)C2	2 mg/kg	–	> 20 µM	0.7 µM	–	17 mg/kg	–	ID50 [8]: 15 mg/kg; Stabilty [13]: 72%; Stabilty [14]: 1%; logD [15]: 3; permeability [16]: Permeable; fraction unbound [17]: 0.16; half-life [18]: 1.06 h; clearance [19]: 261 mL/min/kg; CL/F [20]: 264 mL/min/kg; bioavailability [21]: 55.2%; concentration [10]: 16.3 µM; Ki [22]: 1.33 µM
CN(C)C(=O)CN1Cc2ccccc2CN2CC[C@@]1(c1ccccc1)C2	> 30 mg/kg	52%	> 20 µM	4 µM	5.3 µM	–	–	–
c1ccc([C@@]23CCN(Cc4ccccc4CN2)C3)cc1	< 30 mg/kg	72%	> 20 µM	2.2 µM	49.2 µM	> 30 mg/kg	19%	–
